Source: patent publication US12195427B2, “MASP-2 inhibitors and methods of use” (priority 2018, dated 2025)

Target: MASP-2 CCP2-SP (Homo sapiens (Human), UniProt O00187)
Experiment: MASP-2 co-crystallization, X-ray crystallography and structure analysis (H-bonds, van der Waals contacts);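 on Ligand-pharmacophore element distance, pharmacophore element C2: distance from averaged pharmacophore element to bound ligand; missing value means element absent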;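 on Ligand-pharmacophore element distance, pharmacophore element C3: distance from averaged pharmacophore element to bound ligand; missing value means element absent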;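 on Ligand-pharmacophore element distance, pharmacophore element C4: distance from averaged pharmacophore element to bound ligand; missing value means element absent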;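 on Ligand-pharmacophore element distance, pharmacophore element C5: distance from averaged pharmacophore element to bound ligand; missing value means element absent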
Parameters: van der Waals contact distance, MASP-2 HIS 483 atom CD2 / van der Waals contact distance, MASP-2 HIS 483 atom NE2 / van der Waals contact distance, SER 654 C to compound atom / van der Waals contact distance, SER 654 O to compound atom / van der Waals contact distance, TRP 655 C to compound atom / van der Waals contact distance, MASP-2 GLY 528 atom CA / van der Waals contact distance TRP 655 atom CZ3 / van der Waals contact distance TRP 655 atom N / van der Waals contact distance TRP 655 atom CE3 / van der Waals contact distance GLY 656 atom C / van der Waals contact distance GLY 656 atom CA / van der Waals contact distance GLY 656 atom O / van der Waals contact distance, MASP-2 TYR 607 atom CD1 / van der Waals contact distance, MASP-2 PRO 606 atom O / d(C3,CA1) / d(CA1,N1)2 / d(H4,O1) / d(H4,O2) / d(O1,O2) / d(CA1,O2) / d(CA6,O1) / d(CA6,O2) / d(CA1,C5) / d(O2,H3) / d(N2,C2) / d(CA5,N2) / d(N2,C4) / d(N2,C6) / d(N2,CA3) / d(N2,O3) / d(O4,H2): unit not given beside the values
Details: for H-bond distance to MASP-2 GLY 656 atom N: GLY 656 N; for H-bond distance to MASP-2 SER 654 atom O: SER 654 O; for H-bond distance to MASP-2 SER 657 atom O: SER 657 O; for van der Waals contact distance, MASP-2 HIS 483 atom CD2: Table A2-1; for van der Waals contact distance, VAL 653 CG1 to compound atom: Table A2-11
Summary of the method: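 First, CCP2-SP constructs with or without a 6His tag are produced in E. coli. Crystals are then soaked once or twice with inhibitor, cryoprotected in 20% glycerol or frozen directly, and diffracted at synchrotron beamlines. Phasing uses molecular replacement with parts of 1Q3X.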

[1] = Table A5-1 pharmacophore: distance between elements, S2/S1 region
[2] = Table A5-2 pharmacophore distance, S3/S4 region
[3] = Table A7-1, between pharmacophore elements of the bound compound
[4] = Table A8-6, nearest protein atom in cell to the left

Chain of MASP-2 CCP2-SP (O00187 445-686): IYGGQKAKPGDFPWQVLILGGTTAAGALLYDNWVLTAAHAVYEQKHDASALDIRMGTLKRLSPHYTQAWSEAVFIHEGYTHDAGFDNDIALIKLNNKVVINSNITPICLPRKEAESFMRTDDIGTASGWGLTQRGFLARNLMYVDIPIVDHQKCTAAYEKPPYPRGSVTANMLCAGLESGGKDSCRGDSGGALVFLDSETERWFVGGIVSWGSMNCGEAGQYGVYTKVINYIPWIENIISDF
Chain of MASP-2 CCP2-SP (O00187 364-432 partner): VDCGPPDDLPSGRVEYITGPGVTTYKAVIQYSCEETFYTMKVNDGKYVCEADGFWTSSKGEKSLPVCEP

N=C(N)c1ccc(CNC(=O)[C@@H]2CCN2C(=O)[C@H](NCC(=O)O)C2Cc3ccccc3C2)cc1 [compound 1129]
H-bond distance to MASP-2 ASP 627 atom OD1 (Table A1 (H-Bonds), ASP 627 OD1): 2.79
H-bond distance to MASP-2 GLN 665 atom OE1 (Table A1 (H-Bonds), GLN 665 OE1): 2.76
H-bond distance to MASP-2 GLY 656 atom N (Table A1 (H-Bonds)): 2.93
H-bond distance to MASP-2 SER 628 atom OG (Table A1 (H-Bonds), SER 628 OG): 2.86
H-bond distance to MASP-2 SER 654 atom O (Table A1 (H-Bonds)): 2.84
H-bond distance to MASP-2 SER 657 atom O (Table A1 (H-Bonds)): 2.92
van der Waals contact distance, MASP-2 HIS 483 atom CD2: 3.75
van der Waals contact distance, MASP-2 PHE 529 atom CE1 (Table A2-3): 3.52
van der Waals contact distance, MASP-2 PRO 606 atom C (Table A2-4): 3.86
van der Waals contact distance, MASP-2 amino acid atom to compound atom (Table A2-9 second part, ARG 630, AA atoms N, NE, NH1): 3.69
van der Waals contact distance, VAL 653 CG1 to compound atom: 3.9
van der Waals contact distance GLY 656 atom C (Table A2-13, MASP-2 GLY 656 C): 3.54
Ligand-pharmacophore element distance, pharmacophore element C2 (Table A4-1, element C2): 3.15
Ligand-pharmacophore element distance, pharmacophore element C3 (Table A4-1, element C3): 0
Ligand-pharmacophore element distance, pharmacophore element C4 (Table A4-1, element C4): 0
Ligand-pharmacophore element distance, pharmacophore element C5 (Table A4-1, element C5): 0
Ligand-pharmacophore element distance, pharmacophore element C6 (Table A4-1, element C6): 0
Ligand-pharmacophore element distance, pharmacophore element C7 (Table A4-1, element C7): 0
Ligand-pharmacophore element distance, pharmacophore element CA1 (Table A4-1, element CA1): 0.35
Ligand-pharmacophore element distance, pharmacophore element CA2 (Table A4-1, element CA2): 0
Ligand-pharmacophore element distance, pharmacophore element CA3 (Table A4-1, element CA3): 0
Ligand-pharmacophore element distance, pharmacophore element CA4 (Table A4-1, element CA4): 0
Ligand-pharmacophore element distance, pharmacophore element CA5 (Table A4-1, element CA5): 0.67
Ligand-pharmacophore element distance, pharmacophore element CA6 (Table A4-1, element CA6): 0
Ligand-pharmacophore element distance, pharmacophore element H1 (Table A4-2, element H1): 0
Ligand-pharmacophore element distance, pharmacophore element H2 (Table A4-2, element H2): 0
Ligand-pharmacophore element distance, pharmacophore element H3 (Table A4-2, element H3): 1.34
Ligand-pharmacophore element distance, pharmacophore element H4 (Table A4-2, element H4): 3.79
Ligand-pharmacophore element distance, pharmacophore element N1 (Table A4-2, element N1): 1.8
Ligand-pharmacophore element distance, pharmacophore element N2 (Table A4-2, element N2): 1.8
Ligand-pharmacophore element distance, pharmacophore element O1 (Table A4-2, element O1): 0.39
Ligand-pharmacophore element distance, pharmacophore element O2 (Table A4-2, element O2): 0.58
Ligand-pharmacophore element distance, pharmacophore element O3 (Table A4-2, element O3): 0
Ligand-pharmacophore element distance, pharmacophore element O4 (Table A4-2, element O4): 0
d(CA1,N1) [1]: 3.60
d(CA1,O1) [1]: 4.47
d(CA1,O2) [1]: 4.37
d(H4,O1) [1]: 5.00
d(H4,O2) [1]: 4.63
d(O1,O2) [1]: 3.49
d(CA5,N2) [2]: 5.54
d(N2,C2) [2]: 2.76
d(O2,H3) [2]: 2.83
d(O2,N2) [2]: 3.19
a(CA1, O1, O2) (Table A6-1 pharmacophore angle): 111.77
a(O1, O2, H4) (Table A6-1 pharmacophore angle): 137.67
A(N1, CA1, O1) a) (Table A6-1 pharmacophore angle, all compounds with protonatable center N1 except Methyl-amino-pyridine): 164.78
a(O1, O2, H3) (Table A6-2 pharmacophore angle): 122.63
a(O1, O2, N2) (Table A6-2 pharmacophore angle): 127.76
a(O2, N2, C2) (Table A6-2 pharmacophore angle): 110.31
Pharmacophore torsion angle a(H4, O1, O2, H3) [3]: 104.70
Pharmacophore torsion angle a(H4, O1, O2, N2) [3]: 133.45
Pharmacophore torsion angle a(N1, CA1, O2, H4) [3]: −139.56
Pharmacophore torsion angle a(O1, H4, O2, CA1) [3]: −65.27
Pharmacophore torsion angle a(O1, O2, N2, C2) [3]: 95.54
Pharmacophore torsion angle a(O1, O2, N2, CA5) (Table A7-2, between pharmacophore elements of the bound compound): 145.95
Pharmacophore protein distance to MET_658 (first MET_658 column) (Table A8-6, 6th residue column, nearest protein atom in cell to the left): 2.85
Pharmacophore protein distance to MET_658 (second MET_658 column) (Table A8-6, 9th residue column, nearest protein atom in cell to the left): 3.11
Pharmacophore protein distance to GLY_528 [4]: 3.51
Pharmacophore protein distance to PHE_529 [4]: 2.98
Pharmacophore protein distance to PRO_608 [4]: 4.05
Pharmacophore protein distance to SER_611 [4]: 2.58
Pharmacophore protein distance to TRP_655 (Table A8-6, pharmacophore elements C6, CA3, O3, H1, nearest protein atom in cell to the left): 3.31

C[C@H](NC(=O)[C@@H](CCc1ccccc1)NCCCc1ccc(O)cc1)C(=O)NCc1ccc(C(=N)N)cc1 [compound 1145]
H-bond distance to MASP-2 GLY 656 atom N (Table A1 (H-Bonds)): 3.09
H-bond distance to MASP-2 GLY 656 atom O (Table A1 (H-Bonds), GLY 656 O): 2.58
H-bond distance to MASP-2 SER 628 atom O (Table A1 (H-Bonds), SER 628 O): 2.84
H-bond distance to MASP-2 SER 654 atom O (Table A1 (H-Bonds)): 2.84
H-bond distance to MASP-2 SER 657 atom O (Table A1 (H-Bonds)): 2.81
van der Waals contact distance, MASP-2 HIS 483 atom CD2: 3.75
van der Waals contact distance, MASP-2 PHE 529 atom CD1 (Table A2-3): 3.54
van der Waals contact distance, MASP-2 TYR 607 atom CD2 (Table A2-4): 3.89
van der Waals contact distance, VAL 653 CG1 to compound atom: 3.9
van der Waals contact distance TRP 655 atom CE3 (Table A2-13, MASP-2 TRP 655 CE3, compound atom in line below): 3.49
van der Waals contact distance TRP 655 atom N (Table A2-13, MASP-2 TRP 655 N): 3.79
van der Waals contact distance, MASP-2 amino acid atom to compound atom (Table A2 section before Table A2-8): 3.85
